Assay results from patent publication US11246936B2, “Compositions and methods using rebaudioside X to provide sweetness enhancement” (The Coca-Cola Company, priority 2013, dated 2022).

Columns and labels:
[1] = system: panelists; test: Taste evaluation of lemon-lime carbonated soft drinks against HFCS-55 controls; type: in vivo, human
Protocol: Lemon-lime carbonated soft drinks (CSD) were made by dissolving all ingredients in an amount of water sufficient to make a syrup from which finished beverages were made by adding 5.5 parts carbonated water to 1 part syrup (beverage carbonation target of 3.7 volumes of CO2). Products were prepared with the ingredients provided in Table 8: The beverages were aged for seven days at room temperature and then cooled at 4° C. before tasting. Four panelists evaluated the beverages. Bottles were removed from the refrigerator and about 20 ml of beverage poured in 2 oz-plastic cups. Mineral water was given for palate rinsing before tasting and between tasting different samples.

[2] = system: panelists; test: Taste evaluation of sweetness against sucrose reference beverages (water and citric acid buffer); type: in vivo, human
Protocol: Solutions were made by dissolving all ingredients in treated water. For citric acid buffer, citric acid and potassium citrate were added in a sufficient amount to bring the pH to 3.2. Finished products were filled in 300 ml-glass bottles and stored in the refrigerator. The Rebaudioside X used was 95% pure and obtained from Pure Circle. Beverages were kept in the refrigerator overnight and tasted cold the following day. Two panelists evaluated the beverages. Bottles were removed from the refrigerator and about 50 ml of the beverage was poured in 4 oz-plastic cups. Taste test were conducted in two sessions for each type of solution: water and citric acid buffer. In the first session, the sweetness level of the beverages containing 20 ppm and 30 ppm rebaudioside X were determined against the 0.5%, 1%, and 1.5% sucrose beverages. In the second session, the sweetness level of the beverages containing 7% sucrose and either 20 ppm or 30 ppm rebaudioside X were determined against the 7%, 8%, 9%, and 10% sucrose beverages. Panelists were given mineral water for rinsing before tasting and between tasting different samples. Unsalted crackers were also given to panelists to eat followed by rinsing their mouth with mineral water before tasting the next sample.

[3] = system: human sense of taste; test: Sweetness recognition threshold; type: in vivo
Excerpt: The term “sweetness recognition threshold,” as generally used herein, is the lowest known concentration of a sweet compound that is perceivable by the human sense of taste. As such, rebaudioside X enhances or potentiates the sweet taste of sweeteners without providing any noticeable sweet taste by itself when present below its sweetness recognition threshold concentration. However, rebaudioside X may provide a detectable sweet taste at concentrations above its sweetness recognition threshold. The sweetness recognition threshold of rebaudioside X is about 20 to about 30 ppm.
The term “sucrose equivalence,” as used herein, refers to the sweetness of a composition containing at least one […] sweetener against a sucrose reference. Typically, taste panelists are trained to detect sweetness of reference sucrose solutions containing between 1-15% sucrose (w/v). Other non-sucrose sweeteners are then tasted at a series of dilutions to determine the concentration of the non-sucrose, i.e. rebaudioside X, sweetener that is as sweet (i.e. isosweet) to a given percent sucrose reference.

With `C=C1C[C@@]23CC[C@H]4[C@@](C)(CCC[C@@]4(C)C(=O)O[C@@H]4O[C@H](CO)[C@@H](O)[C@H](O[C@@H]5O[C@H](CO)[C@@H](O)[C@H](O)[C@H]5O)[C@H]4O[C@@H]4O[C@H](CO)[C@@H](O)[C@H](O)[C@H]4O)[C@@H]2CC[C@]1(O[C@@H]1O[C@H](CO)[C@@H](O)[C@H](O[C@@H]2O[C@H](CO)[C@@H](O)[C@H](O)[C@H]2O)[C@H]1O[C@@H]1O[C@H](CO)[C@@H](O)[C@H](O)[C@H]1O)C3` [rebaudioside X, 13-[(2-O-β-D-glucopyranosyl-3-O-β-D-glucopyranosyl-β-D-glucopyranosyl)oxy] ent kaur-16-en-19-oic acid-[(2-O-β-D-glucopyranosyl-3-O-β-D-glucopyranosyl-β-D-glucopyranosyl) ester]] the “overall sweetness similar to HFCS-55 beverage” value ([1]; 8% HFCS-55 and 30 ppm rebaudioside X in lemon lime CSD, four panelists, 10% HFCS-55 same sweetness as 10% sucrose) was “about 10 % HFCS-55”, the sweetness enhancement ([1]; 30 ppm rebaudioside X added to a beverage containing 8% HFCS-55 (same sweetness as 8% sucrose)) was “about 2.0%” and the “overall sweetness similar to sucrose beverage” value ([2]; 7% sucrose and 20 ppm rebaudioside X in water or citric acid buffer, between the 9% and 10% sucrose beverage (average)) was ~9.5 % sucrose. The “overall sweetness similar to sucrose beverage” value ([2]; 7% sucrose and 30 ppm rebaudioside X in either water or citric acid buffer) was ~10 % sucrose, the sweetness enhancement ([2]; 20 and 30 ppm rebaudioside X added to a beverage containing 7% sucrose) was “about 1.5%” and the “increase in isosweetness provided by rebaudioside X” value ([2]; 20 ppm rebaudioside X in 7.0% (w/v) sucrose beverage) was 2.5 % (w/v). For the same compound, the “overall sweetness similar to sucrose beverage” value ([2]; 20 ppm rebaudioside X in either water or citric acid buffer (pH 3.2), two panelists, tasted cold) was ~1 % sucrose, the “overall sweetness similar to sucrose beverage” value ([2]; 30 ppm rebaudioside X in either water or citric acid buffer (pH 3.2), two panelists, tasted cold) was ~1.5 % sucrose and the isosweet sucrose solution ([2]; beverage containing 7.0% (w/v) sucrose and 20 ppm rebaudioside X) was 9.5 % (w/v). The isosweet sucrose solution ([2]; solution containing 20 ppm rebaudioside X, no other sweetener) was 1.0 % (w/v), the “sucrose equivalence provided at the sweetness recognition threshold” value ([3]; at about 20-30 ppm rebaudioside X) was 1.0-1.5% and the sweetness recognition threshold ([3]; lowest concentration perceivable by the human sense of taste) was 20-30 ppm.
